# Target: h-Cereblon_DDB1 (hCereblon(M1-L442)_hDDB1(M1-H1140)) (Homo sapiens (Human), UniProt Q96SW2)
# Test: Fluorescence direct binding (tryptophan fluorescence titration)
# Settings: 20° C., excitation 280 nm, emission 340 nm, 1:1 protein-ligand complex; read-out: Fluorescence h-Cereblon_DDB1 Mean Kd_EQ
# Procedure: Determination of the affinities of compounds to protein containing one or more tryptophan is measurable by monitoring the fluorescence emission in direct mode. The measurements depending on the protein available amounts are performed either manually in a cuvette on ISS-PC1 photon counting spectrofluorometer or automatically in well plates on a fluorescence plate reader device. Fluorescence titrations are performed at 20° C. in the chosen binding assay buffer by using a defined constant protein concentration against ligand concentration variations. Small aliquots of known ligand concentration solubilized in DMSO were added and the fluorescence, excited at 280 nm, was recorded at 340 nm. The fluorescence intensity was corrected for protein dilution and for the filter effect (Birdsall et al.^37). The corrected fluorescence intensity was plotted against the ligand concentration and fitted using a four-parameter sigmoidal function, from which the equilibrium dissociation constant Kd was computed using the law of mass action assuming a 1:1 protein-ligand complex (Eftink, 1997^38).
# Process • 1) Optimization of measurement parameters to minimize protein consumption and to minimize the dilution effect and the DMSO content • 2) Titration measurements of the protein against ligand by at least 12 titration steps to obtain a good s-curve fit • 3) Repeat the same titration measurements with the ligand alone to enable correction • 4) Check the stability of the protein once by titration against DMSO alone • 5) Determination of the molar extinction coefficients of the ligand at 280 and 340 nm with help of a UV-spectrophotometer • 6) Use Excel template for the correction of the measured raw data • 7) Use GraphPad Prism software for the quadratic binding fit and the Kd evaluation.
# h-Cereblon_DDB1 (hCereblon(M1-L442)_hDDB1(M1-H1140)), sequence (Q96SW2 whole entry): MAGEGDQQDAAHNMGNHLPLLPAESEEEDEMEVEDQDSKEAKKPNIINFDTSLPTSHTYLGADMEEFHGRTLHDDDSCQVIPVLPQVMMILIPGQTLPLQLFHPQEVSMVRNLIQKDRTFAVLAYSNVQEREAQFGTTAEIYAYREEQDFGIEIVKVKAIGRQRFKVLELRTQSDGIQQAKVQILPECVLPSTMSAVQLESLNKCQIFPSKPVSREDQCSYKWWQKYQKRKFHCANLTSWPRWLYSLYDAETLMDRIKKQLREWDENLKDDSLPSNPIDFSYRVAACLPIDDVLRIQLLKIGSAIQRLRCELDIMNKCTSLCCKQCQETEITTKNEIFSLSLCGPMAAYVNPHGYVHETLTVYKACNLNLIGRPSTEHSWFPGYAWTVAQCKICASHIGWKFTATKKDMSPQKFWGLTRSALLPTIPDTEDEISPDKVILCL
# h-Cereblon_DDB1 (hCereblon(M1-L442)_hDDB1(M1-H1140)), sequence (Q16531 whole entry partner): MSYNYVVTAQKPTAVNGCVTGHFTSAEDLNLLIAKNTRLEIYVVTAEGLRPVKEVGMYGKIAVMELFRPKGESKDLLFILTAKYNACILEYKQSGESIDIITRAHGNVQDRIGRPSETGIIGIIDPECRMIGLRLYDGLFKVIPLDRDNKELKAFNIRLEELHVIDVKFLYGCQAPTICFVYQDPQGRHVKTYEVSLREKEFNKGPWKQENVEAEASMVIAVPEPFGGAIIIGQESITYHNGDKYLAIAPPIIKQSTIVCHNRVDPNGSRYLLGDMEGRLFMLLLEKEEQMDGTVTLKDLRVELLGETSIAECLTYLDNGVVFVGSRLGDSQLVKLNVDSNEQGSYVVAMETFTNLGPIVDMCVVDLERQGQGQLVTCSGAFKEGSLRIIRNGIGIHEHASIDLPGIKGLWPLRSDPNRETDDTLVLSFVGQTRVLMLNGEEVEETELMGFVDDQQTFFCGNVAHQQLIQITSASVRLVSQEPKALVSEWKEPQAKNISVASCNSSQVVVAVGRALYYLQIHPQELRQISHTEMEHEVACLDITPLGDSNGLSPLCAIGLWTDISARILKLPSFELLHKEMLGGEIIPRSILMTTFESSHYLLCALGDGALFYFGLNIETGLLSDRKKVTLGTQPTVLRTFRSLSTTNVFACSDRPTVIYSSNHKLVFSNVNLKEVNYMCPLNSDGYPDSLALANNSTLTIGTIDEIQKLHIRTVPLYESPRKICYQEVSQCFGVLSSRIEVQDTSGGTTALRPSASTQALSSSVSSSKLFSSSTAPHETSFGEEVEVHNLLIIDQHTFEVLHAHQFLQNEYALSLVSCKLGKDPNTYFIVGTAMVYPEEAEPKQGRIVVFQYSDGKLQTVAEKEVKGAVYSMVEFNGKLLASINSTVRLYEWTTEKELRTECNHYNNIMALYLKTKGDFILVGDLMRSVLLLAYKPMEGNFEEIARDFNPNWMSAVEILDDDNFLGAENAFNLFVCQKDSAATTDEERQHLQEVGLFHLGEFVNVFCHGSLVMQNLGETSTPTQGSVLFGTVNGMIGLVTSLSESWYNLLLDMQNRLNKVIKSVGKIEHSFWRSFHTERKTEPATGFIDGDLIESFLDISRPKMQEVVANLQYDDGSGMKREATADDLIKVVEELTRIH
row,SMILES,Kd [nM]
1,"CNC(=O)c1ccc2c(c1)nc(-c1cc(-c3cncn3C)nc3ccccc13)n2-c1ccc2c(c1)CCC(=O)N2 [Example 2, N-Methyl-2-[2-(3-methylimidazol-4-yl)-4-quinolyl]-1-(2-oxo-3,4-dihydro-1H-quinolin-6-yl)benzimidazole-5-carboxamide]",40
2,Cn1cncc1-c1cc(C(=O)Nc2ccc3c(c2)CCC(=O)N3)c2ccccc2n1 [Example 5],677
3,"COC(=O)c1ccc(Nc2ccc3c(c2)CCC(=O)N3)cc1 [Example 19, Methyl 4-((2-oxo-1,2,3,4-tetrahydroquinolin-6-yl)amino)benzoate]",30
4,"CNC(=O)c1ccc2c(c1)nc(-c1ccnc(OC)c1)n2-c1cnc2c(c1)CCC(=O)N2 [Example 29, 2-(2-Methoxy-4-pyridyl)-N-methyl-1-(7-oxo-6,8-dihydro-5H-1,8-naphthyridin-3-yl)benzimidazole-5-carboxamide]",35
5,"CNC(=O)c1ccc2c(c1)nc(-c1cc(OC)ccc1C)n2-c1ccc2c(c1)CCC(=O)N2 [Example 33, 2-(5-Methoxy-2-methyl-phenyl)-N-methyl-1-(2-oxo-3,4-dihydro-1H-quinolin-6-yl)benzimidazole-5-carboxamide]",45
6,"CNC(=O)c1ccc2c(c1)nc(Cc1ccc(C(F)(F)F)cc1OC)n2-c1ccc2c(c1)CCC(=O)N2 [Example 47, 2-[[2-Methoxy-4-(trifluoromethyl)phenyl]methyl]-N-methyl-1-(2-oxo-3,4-dihydro-1H-quinolin-6-yl)benzimidazole-5-carboxamide]",17
7,"O=C1CCc2cc(C(=O)N3CCc4cccnc43)ccc2N1 [Example 55, 6-(2,3-Dihydropyrrolo[2,3-b]pyridine-1-carbonyl)-3,4-dihydro-1H-quinolin-2-one]",23
8,"CC(=O)N1CCC(NC(=O)c2ccc3c(c2)CCC(=O)N3)CC1 [Example 57, N-(1-Acetyl-4-piperidyl)-2-oxo-3,4-dihydro-1H-quinoline-6-carboxamide]",41
9,"O=C1CCc2cc(C(=O)N3CCc4ccccc43)cnc2N1 [Example 58, 6-(Indoline-1-carbonyl)-3,4-dihydro-1H-1,8-naphthyridin-2-one]",62
10,"CC(C)c1nc2ccccc2n1-c1ccc2c(c1)CNC(=O)N2 [Example 61, 6-(2-Isopropyl-1H-benzo[d]imidazol-1-yl)-3,4-dihydroquinazolin-2(1H)-one]",171
11,"CNC(=O)c1ccc2c(c1)nc(C(C)C)n2-c1ccc2c(c1)CNC(=O)N2 [Example 62, 2-Isopropyl-N-methyl-1-(2-oxo-1,2,3,4-tetrahydroquinazolin-6-yl)-1H-benzo[d]imidazole-5-carboxamide]",120
12,"Cc1sc2c(c1C)C(c1ccc(Cl)cc1)=N[C@@H](CC(=O)NCCCCCCCCCCNC(=O)c1ccc3c(c1)nc(-c1cc(-c4cncn4C)nc4ccccc14)n3-c1ccc3c(c1)CCC(=O)N3)c1nnc(C)n1-2 [Example A, N-(10-(2-((6S)-4-(4-Chlorophenyl)-2,3,9-trimethyl-6H-thieno[3,2-f][1,2,4]triazolo[4,3-a][1,4]diazepin-6-yl)acetamido)decyl)-2-(2-(1-methyl-1H-imidazol-5-yl)quinolin-4-yl)-1-(2-oxo-1,2,3,4-tetrahydroquinolin-6-yl)-1H-benzo[d]imidazole-5-carboxamide]",338
13,"Cc1sc2c(c1C)C(c1ccc(Cl)cc1)=N[C@@H](CC(=O)NCCCCCNC(=O)c1ccc3c(c1)nc(-c1cc(-c4cncn4C)nc4ccccc14)n3-c1ccc3c(c1)CCC(=O)N3)c1nnc(C)n1-2 [Example B, N-(5-(2-((6S)-4-(4-Chlorophenyl)-2,3,9-trimethyl-6H-thieno[3,2-f][1,2,4]triazolo[4,3-a][1,4]diazepin-6-yl)acetamido)pentyl)-2-(2-(1-methyl-1H-imidazol-5-yl)quinolin-4-yl)-1-(2-oxo-1,2,3,4-tetrahydroquinolin-6-yl)-1H-benzo[d]imidazole-5-carboxamide]",258
14,"Cc1sc2c(c1C)C(c1ccc(Cl)cc1)=N[C@@H](CC(=O)NCCOCCOCCNC(=O)c1ccc3c(c1)nc(-c1cc(-c4cncn4C)nc4ccccc14)n3-c1ccc3c(c1)CCC(=O)N3)c1nnc(C)n1-2 [Example C, N-(2-(2-(2-(2-((6S)-4-(4-Chlorophenyl)-2,3,9-trimethyl-6H-thieno[3,2-f][1,2,4]triazolo[4,3-a][1,4]diazepin-6-yl)acetamido)ethoxy)ethoxy)ethyl)-2-(2-(1-methyl-1H-imidazol-5-yl)quinolin-4-yl)-1-(2-oxo-1,2,3,4-tetrahydroquinolin-6-yl)-1H-benzo[d]imidazole-5-carboxamide]",524

# The next compounds have a lower Kd than those just listed; values first:
row,Kd [nM],SMILES
1,4,"O=C1CCc2cc(NC(=O)C3CCCc4ccccc43)cnc2N1 (racemic) [Example 21, (RS)—N-(7-Oxo-5,6,7,8-tetrahydro-1,8-naphthyridin-3-yl)-1,2,3,4-tetrahydronaphthalene-1-carboxamide]"
2,16,"O=C1CCc2cc(-n3ccnc3)cnc2N1 [Example 9, 6-(1H-Imidazol-1-yl)-3,4-dihydro-1,8-naphthyridin-2(1H)-one]"
3,11,"CNC(=O)c1ccc2c(c1)nc(CO)n2-c1ccc2c(c1)CCC(=O)N2 [Example 15, 2-(Hydroxymethyl)-N-methyl-1-(2-oxo-1,2,3,4-tetrahydroquinolin-6-yl)-1H-benzo[d]imidazole-5-carboxamide]"
4,4,"COC(=O)c1ccc2c(c1)nc(-c1ccnc(OC)c1)n2-c1ccc2c(c1)CCC(=O)N2 [Example 22, Methyl 2-(2-methoxypyridin-4-yl)-1-(2-oxo-1,2,3,4-tetrahydroquinolin-6-yl)-1H-benzo[d]imidazole-5-carboxylate]"
5,15,"CNC(=O)c1ccc2c(c1)nc(-c1cccc(OC)n1)n2-c1ccc2c(c1)CCC(=O)N2 [Example 23, 2-(6-Methoxypyridin-2-yl)-N-methyl-1-(2-oxo-1,2,3,4-tetrahydroquinolin-6-yl)-1H-benzo[d]imidazole-5-carboxamide]"
6,12,"CNC(=O)c1ccc2c(c1)nc(-c1ccc(OC)nc1)n2-c1ccc2c(c1)CCC(=O)N2 [Example 24, 2-(6-Methoxypyridin-3-yl)-N-methyl-1-(2-oxo-1,2,3,4-tetrahydroquinolin-6-yl)-1H-benzo[d]imidazole-5-carboxamide]"
7,14,"CNC(=O)c1ccc2c(c1)nc(-c1cc(OC)ccc1F)n2-c1ccc2c(c1)CCC(=O)N2 [Example 35, 2-(2-Fluoro-5-methoxy-phenyl)-N-methyl-1-(2-oxo-3,4-dihydro-1H-quinolin-6-yl)benzimidazole-5-carboxamide]"
8,10,"CNC(=O)c1ccc2c(c1)nc(-c1cc(OC)ncc1F)n2-c1ccc2c(c1)CCC(=O)N2 [Example 44, 2-(5-Fluoro-2-methoxy-4-pyridyl)-N-methyl-1-(2-oxo-3,4-dihydro-1H-quinolin-6-yl)benzimidazole-5-carboxamide]"
9,16,"O=C1CCc2ccc(-n3ccnc3)cc2N1 [Example 53, 7-(1H-Imidazol-1-yl)-3,4-dihydroquinolin-2(1H)-one]"
10,3,"O=C1CCc2cc(C(=O)N3CCc4cccnc43)cnc2N1 [Example 59, 6-(2,3-Dihydropyrrolo[2,3-b]pyridine-1-carbonyl)-3,4-dihydro-1H-1,8-naphthyridin-2-one]"
11,1,"O=C1CCc2cc(C(=O)N3CCCc4ccccc43)cnc2N1 [Example 60, 6-(3,4-Dihydro-2H-quinoline-1-carbonyl)-3,4-dihydro-1H-1,8-naphthyridin-2-one]"
